{"source": "patent US20200022951A1", "about": "“MULTIVITAMIN COMPOSITION FOR IMPROVING VERBAL FLUENCY, DECREASING PERFORMANCE ANXIETY SYMPTOMS AND METHOD FOR PREPARING SAME” (priority 2017, published 2020)", "tested_on": "individuals with performance anxiety", "experiment": "trials using the composition: anxiety and speech fluency", "format": "in vivo", "details": "as component of the composition of the invention", "data": [{"smiles": "NCCCC[C@H](N)C(=O)O", "note": "[L-Lysine]", "values": [{"measurement": "effect on anxiety amelioration", "result": "positive effect"}]}]}
